Measured values as given in ChEMBL document CHEMBL5252648, “Design, synthesis and bioactivity evaluation of a series of quinazolinone derivatives as potent PI3Kγ antagonist” (Bioorg Med Chem, 2023).
Calls of active or inactive are those of the source. The rule behind the calls is not given here.

Experiments:
[1] = biological target: T1, Phosphatidylinositol 4,5-bisphosphate 3-kinase catalytic subunit delta isoform (Homo sapiens) (UniProt O00329); assay: Antagonist activity at PI3Kdelta (unknown origin) assessed as inhibition rate at 20 nM using PIP2 as substrate in presence of ATP incubated for 30 to 60 mins by ADP-glo based luminescence assay relative to control; conditions: time 30-60 min
T1 sequence (whole entry): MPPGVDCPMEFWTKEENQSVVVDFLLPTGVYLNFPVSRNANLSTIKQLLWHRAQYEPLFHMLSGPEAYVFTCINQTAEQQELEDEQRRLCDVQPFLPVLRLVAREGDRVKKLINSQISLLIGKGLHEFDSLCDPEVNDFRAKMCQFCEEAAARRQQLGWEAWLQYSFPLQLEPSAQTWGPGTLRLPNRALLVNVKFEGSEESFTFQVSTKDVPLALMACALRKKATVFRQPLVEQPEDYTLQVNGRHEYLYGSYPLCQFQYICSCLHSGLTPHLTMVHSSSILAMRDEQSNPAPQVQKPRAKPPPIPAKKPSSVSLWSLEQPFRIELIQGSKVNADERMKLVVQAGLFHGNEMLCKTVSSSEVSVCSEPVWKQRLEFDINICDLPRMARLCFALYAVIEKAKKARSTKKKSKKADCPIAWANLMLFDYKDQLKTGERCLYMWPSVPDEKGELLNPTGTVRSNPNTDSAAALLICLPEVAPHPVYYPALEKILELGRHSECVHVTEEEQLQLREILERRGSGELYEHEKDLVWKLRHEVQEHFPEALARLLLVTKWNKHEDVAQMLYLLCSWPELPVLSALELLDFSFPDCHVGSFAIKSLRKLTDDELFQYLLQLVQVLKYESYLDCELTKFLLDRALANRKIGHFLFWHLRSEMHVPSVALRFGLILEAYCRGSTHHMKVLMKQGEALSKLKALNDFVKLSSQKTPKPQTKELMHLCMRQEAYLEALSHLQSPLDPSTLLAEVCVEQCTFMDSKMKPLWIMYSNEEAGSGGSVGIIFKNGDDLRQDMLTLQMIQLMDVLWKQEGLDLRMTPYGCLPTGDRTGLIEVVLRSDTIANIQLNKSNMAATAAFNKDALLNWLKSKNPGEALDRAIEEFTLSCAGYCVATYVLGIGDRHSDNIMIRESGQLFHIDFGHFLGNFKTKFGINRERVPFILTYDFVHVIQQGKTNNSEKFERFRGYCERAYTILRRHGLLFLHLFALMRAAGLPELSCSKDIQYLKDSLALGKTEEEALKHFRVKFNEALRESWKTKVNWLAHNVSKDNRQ

[2] = biological target: Phosphatidylinositol 4,5-bisphosphate 3-kinase catalytic subunit gamma isoform (Homo sapiens, UniProt P48736); assay: Antagonist activity at PI3Kgamma (unknown origin) assessed as inhibition rate at 20 nM using PIP2 as substrate in presence of ATP incubated for 30 to 60 mins by ADP-glo based luminescence assay relative to control; conditions: filed as antagonist, time 30-60 min
[3] = biological target: T2, Phosphatidylinositol 4,5-bisphosphate 3-kinase catalytic subunit delta isoform (Homo sapiens, UniProt O00329); assay: Antagonist activity at PI3Kdelta (unknown origin) using PIP2 as substrate in presence of ATP incubated for 30 to 60 mins by ADP-glo based luminescence assay
T2 sequence (O00329 whole entry): T1 sequence (whole entry)

[4] = test system: Jurkat; assay: Cytotoxicity against human Jurkat cells assessed as reduction in cell viability incubated for 24 hrs by CCK-8 assay; format: functional, cell-based
[5] = test system: THP-1; assay: Cytotoxicity against human THP-1 cells assessed as reduction in cell viability incubated for 24 hrs by CCK-8 assay; format: functional, cell-based; conditions: THP-1, 24 h
[6] = test system: 4T1; assay: Cytotoxicity against mouse 4T1 cells assessed as reduction in cell viability incubated for 24 hrs by CCK-8 assay; format: functional, cell-based; conditions: 4T1, 24 h
[7] = test system: MCF7; assay: Cytotoxicity against human MCF7 cells assessed as reduction in cell viability incubated for 24 hrs by CCK-8 assay; format: functional, cell-based; conditions: MCF7, 24 h
[8] = test system: Jurkat; assay: Induction of apoptosis against human Jurkat cells assessed as early apoptotic cells at 10 uM measured for 24 hrs by Annexin V-FITC/propidium iodide staining based flow cytometry (reference value: 5.76%); format: functional
[9] = test system: Jurkat; assay: Induction of apoptosis against human Jurkat cells assessed as late apoptotic cells at 10 uM measured for 24 hrs by Annexin V-FITC/propidium iodide staining based flow cytometry (reference value: 0.00%); format: functional
[10] = test system: THP-1; assay: Induction of apoptosis against human THP-1 cells assessed as late apoptotic cells at 0.1 uM measured for 24 hrs by Annexin V-FITC/propidium iodide staining based flow cytometry (reference value: 3.70%); format: functional
[11] = biological target: Serine/threonine-protein kinase AKT (Homo sapiens) (UniProt P31751+Q9Y243+P31749); assay: Inhibition of AKT phosphorylation in human Jurkat cells incubated for 1 to 12 hrs by Western blot analysis relative to control; format: cell-based; conditions: dose 0.1-10 µM, time 1-12 hrs
[12] = test system: Jurkat; assay: Upregulation of phosphorylated p38 protein expression in human Jurkat cells at 1 uM measured for 3 hrs; format: functional, cell-based
[13] = test system: THP-1; assay: Induction of apoptosis against human THP-1 cells assessed as necrotic cells at 1 uM measured for 24 hrs by Annexin V-FITC/propidium iodide staining based flow cytometry (reference value: 0.316%); format: functional
[14] = test system: THP-1; assay: Induction of apoptosis against human THP-1 cells assessed as early apoptotic cells at 10 uM measured for 24 hrs by Annexin V-FITC/propidium iodide staining based flow cytometry (reference value: 10.3%); format: functional
[15] = test system: THP-1; assay: Induction of apoptosis against human THP-1 cells assessed as necrotic cells at 10 uM measured for 24 hrs by Annexin V-FITC/propidium iodide staining based flow cytometry (reference value: 0.316%); format: functional

Chain of Serine/threonine-protein kinase AKT (Homo sapiens) (P31749 whole entry, looked up): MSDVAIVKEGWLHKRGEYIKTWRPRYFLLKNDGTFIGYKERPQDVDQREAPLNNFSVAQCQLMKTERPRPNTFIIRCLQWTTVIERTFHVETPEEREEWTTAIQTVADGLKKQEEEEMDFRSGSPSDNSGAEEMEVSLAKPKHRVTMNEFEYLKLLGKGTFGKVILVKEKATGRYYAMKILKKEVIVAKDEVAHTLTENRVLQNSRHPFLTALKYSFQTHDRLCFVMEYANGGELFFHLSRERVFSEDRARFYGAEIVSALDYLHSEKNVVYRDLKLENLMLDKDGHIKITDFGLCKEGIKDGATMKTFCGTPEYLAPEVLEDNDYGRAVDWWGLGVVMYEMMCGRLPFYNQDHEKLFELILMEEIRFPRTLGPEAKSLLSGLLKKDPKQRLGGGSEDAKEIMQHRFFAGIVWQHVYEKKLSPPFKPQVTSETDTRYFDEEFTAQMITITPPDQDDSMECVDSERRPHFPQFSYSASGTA
Chain of Serine/threonine-protein kinase AKT (Homo sapiens) (P31751 whole entry, looked up): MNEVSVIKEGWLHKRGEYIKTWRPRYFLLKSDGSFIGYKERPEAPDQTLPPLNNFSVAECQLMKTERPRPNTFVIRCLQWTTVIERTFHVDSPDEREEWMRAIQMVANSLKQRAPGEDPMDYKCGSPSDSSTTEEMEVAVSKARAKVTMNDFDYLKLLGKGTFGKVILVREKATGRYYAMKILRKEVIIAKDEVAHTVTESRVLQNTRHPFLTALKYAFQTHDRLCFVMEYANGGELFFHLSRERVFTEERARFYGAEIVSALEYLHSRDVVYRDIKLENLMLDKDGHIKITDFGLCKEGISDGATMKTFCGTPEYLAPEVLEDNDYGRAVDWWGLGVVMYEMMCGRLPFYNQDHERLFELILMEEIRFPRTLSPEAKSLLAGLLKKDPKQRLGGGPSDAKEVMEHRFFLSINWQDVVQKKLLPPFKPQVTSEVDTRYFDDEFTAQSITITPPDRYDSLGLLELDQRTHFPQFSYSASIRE
Chain of Serine/threonine-protein kinase AKT (Homo sapiens) (Q9Y243 whole entry, looked up): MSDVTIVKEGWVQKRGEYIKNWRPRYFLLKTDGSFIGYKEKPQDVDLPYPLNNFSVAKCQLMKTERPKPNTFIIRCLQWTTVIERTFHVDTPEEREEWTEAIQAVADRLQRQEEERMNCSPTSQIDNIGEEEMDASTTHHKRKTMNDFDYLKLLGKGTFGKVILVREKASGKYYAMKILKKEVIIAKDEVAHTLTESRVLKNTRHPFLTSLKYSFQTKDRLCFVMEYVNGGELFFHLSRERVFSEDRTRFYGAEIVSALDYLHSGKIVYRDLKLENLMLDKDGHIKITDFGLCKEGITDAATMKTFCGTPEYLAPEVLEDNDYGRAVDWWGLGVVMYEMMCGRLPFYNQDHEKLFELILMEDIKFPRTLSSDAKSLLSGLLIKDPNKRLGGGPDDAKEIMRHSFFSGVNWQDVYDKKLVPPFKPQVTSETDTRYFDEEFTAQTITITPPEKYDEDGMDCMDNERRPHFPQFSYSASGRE
Chain of Phosphatidylinositol 4,5-bisphosphate 3-kinase catalytic subunit gamma isoform (P48736 whole entry, looked up, canonical isoform): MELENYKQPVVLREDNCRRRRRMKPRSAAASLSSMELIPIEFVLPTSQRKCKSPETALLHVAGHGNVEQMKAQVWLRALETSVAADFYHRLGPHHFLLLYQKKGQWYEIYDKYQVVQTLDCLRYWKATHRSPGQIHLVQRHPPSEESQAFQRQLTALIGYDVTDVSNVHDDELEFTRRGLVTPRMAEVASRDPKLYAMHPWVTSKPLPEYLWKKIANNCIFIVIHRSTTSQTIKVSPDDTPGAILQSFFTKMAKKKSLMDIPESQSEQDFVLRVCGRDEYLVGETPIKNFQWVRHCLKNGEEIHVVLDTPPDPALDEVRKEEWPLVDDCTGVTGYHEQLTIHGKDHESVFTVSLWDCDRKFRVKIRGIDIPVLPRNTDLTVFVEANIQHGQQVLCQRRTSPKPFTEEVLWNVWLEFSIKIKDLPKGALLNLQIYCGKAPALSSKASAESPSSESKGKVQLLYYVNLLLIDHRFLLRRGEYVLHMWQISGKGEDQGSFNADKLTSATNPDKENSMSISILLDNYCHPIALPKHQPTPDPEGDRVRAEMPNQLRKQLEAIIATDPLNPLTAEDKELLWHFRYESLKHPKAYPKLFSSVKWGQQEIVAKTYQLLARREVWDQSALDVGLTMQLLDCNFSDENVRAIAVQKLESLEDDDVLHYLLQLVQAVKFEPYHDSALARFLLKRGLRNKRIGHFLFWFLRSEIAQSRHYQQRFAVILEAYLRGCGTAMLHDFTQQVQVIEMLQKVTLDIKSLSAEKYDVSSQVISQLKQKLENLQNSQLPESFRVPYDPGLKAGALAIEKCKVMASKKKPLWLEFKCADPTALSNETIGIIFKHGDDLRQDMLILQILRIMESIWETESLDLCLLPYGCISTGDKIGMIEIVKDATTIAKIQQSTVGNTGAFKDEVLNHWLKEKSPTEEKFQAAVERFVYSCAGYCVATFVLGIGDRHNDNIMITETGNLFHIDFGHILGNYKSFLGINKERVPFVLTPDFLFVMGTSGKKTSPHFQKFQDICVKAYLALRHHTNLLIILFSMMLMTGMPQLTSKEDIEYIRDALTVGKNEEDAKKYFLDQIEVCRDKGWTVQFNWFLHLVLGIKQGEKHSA

inhibition [1]: 16%
inhibition [2]: 53%
IC50 [3]: 0.0131 µM
inhibition [11]: Dose-Dependent Effect
Compound: COc1ccc(C#Cc2cccc3cc(C(C)Nc4ncnc5[nH]cnc45)n(-c4ccccc4)c(=O)c23)cc1 (stereo not given)
IC50 [4]: 2.41 µM
IC50 [5]: 7.47 µM
IC50 [6]: 9.76 µM
IC50 [7]: > 100 µM
Activity [8]: 69.7%
Activity [9]: 0.047%
Activity [10]: 7.85%
Activity [12]: Active
Activity [13]: 0.041%
Activity [14]: 24.6%
Activity [15]: 0.053%
